Source: patent US11464796B2, “Nicotinamide mononucleotide derivatives and their uses” (Metro International Biotech, LLC, priority 2015, dated 2022)
Structures can show the parent of a compound that is named as a salt.

Tests used:
NAD+ levels in liver = assay: NAD+ level in liver of mice after a single oral dose (LC/MS), ratio to vehicle control; format: in vivo; settings: single oral gavage in PBS, generally 500 mg/ml (in some cases 250 mg/kg or ethanol/PBS/PEG400), fasted male C57/BL6 mice; for ratio of mean NAD+ concentration in treated mice compared to vehicle control mice, 4 hr liver: 4 hr post-dose; for ratio of mean NAD+ concentration in treated mice compared to vehicle control mice, 8 hr liver: 8 hr post-dose; for ratio of mean NAD+ concentration in treated mice compared to vehicle control mice, 24 hr liver: 24 hr post-dose
Description: (§1) As the compounds disclosed herein can act as prodrugs for NMN, their biological activity was assessed in vivo by measuring the ability to elevate NAD+ levels in liver and skeletal muscle. These tissues were selected for pharmacodynamics studies due to their relevance for the treatment of metabolic diseases. In general, C57/BL6 mice were fasted from 16 hours, then administered a […] oral dose of a disclosed compound in PBS buffer by oral gavage. In some cases, the dose was 250 mg/kg or in an alternate vehicle: ethanol/PBS/PEG400 (10/30/60). After dosing, the mice were sacrificed at pre-set time points after dosing (generally 4, 8 and 24 hours). The liver and skeletal tissues were removed and flash frozen. After some period of frozen storage, tissue homogenates were prepared. The level of NAD+ was quantified using LC/MS methods.
(§2) For bioanalysis, a method of standard addition was used to quantify the NAD. Each homogenate was divided and certain aliquots had known concentrations of exogenous NAD added. The NAD present in the original sample was then calculated by linear regression. Data are presented as a ratio of mean NAD concentration in treated mouse tissues to mean NAD concentration in the vehicle control group tissues at the paired time points.
(§3) Mixtures of compound and PBS, pH 7 were formulated ˜1 hour before dosing and remained stirring until dose completion. Residual formulated test materials were stored at −20±5° C. until discarded. Naïve male C57/BL6 mice at ˜25 g at dose initiation, age as appropriate for weight were assigned to dose groups of six animals per dose. Dosing treatments were administered via a single oral gavage dose (PO) The dose volume for each animal (5 mL/kg) was based on the most recent body measurements taken the morning of dosing. Animals were fasted at least 16 hrs prior to dose, with food returned at least 4 hours post dose.
(§4) Liver and skeletal muscle were collected and analyzed for nicotinamide adenine dinucleotide (NAD) at 0, 4, 8, and 24 hours post-dose. For each mouse, the entire liver was removed, rinsed with saline, blotted dry and frozen at −70° C. to store for NAD concentration analysis. Also, the soleus skeletal muscle was removed from the gastrocnemius, rinsed with saline, blotted dry and frozen at −70° C. to store for NAD concentration analysis.
(§5) • 1. Add 5× (tissue wt.*5)mL 0.1M ZnSO4 into all tubes. • 2. Add 5× (tissue wt*5)mL Methanol into all tubes. • 3. Homogenize each sample until completely liquid. • 4. Vortex each sample. Tissue Extraction Procedure • 1. On ice, aliquot 20 μL of standards, control blanks, and matrix blanks into a 96-well plate. • 2. Aliquot 20 μL of sample into sample wells. • 3. Add 1004, of IS in 80:20 Methanol:water into each well, except blanks add 100 μL of blank 80:20 Methanol:Water. • 4. Cover plate and vortex samples. Centrifuge for 10 minutes at 3300 rpm. • 5. Transfer 80 μL of supernatant into a clean 96-well plate. • 6. Add 80 μL of LC-MS water to all wells. • 7. Cover and vortex. The concentration of NAD+ in the tissues was determined by LC/MS. The conditions are as follows:
(§6) The ratio of mean NAD+ concentration in the liver and skeletal tissues of treated mice compared to vehicle control mice are given in Table 5. The data is given for the 4, 8, and 24 hour time points.

[1] = system: NAD+ levels in skeletal muscle; assay: NAD+ level in skeletal muscle of mice after a single oral dose (LC/MS), ratio to vehicle control; format: in vivo; settings: soleus skeletal muscle, single oral gavage in PBS, generally 500 mg/ml (in some cases 250 mg/kg or ethanol/PBS/PEG400), fasted male C57/BL6 mice; for ratio of mean NAD+ concentration in treated mice compared to vehicle control mice, 4 hr skeletal: 4 hr post-dose; for ratio of mean NAD+ concentration in treated mice compared to vehicle control mice, 8 hr skeletal: 8 hr post-dose; for ratio of mean NAD+ concentration in treated mice compared to vehicle control mice, 24 hr skeletal: 24 hr post-dose
Description: as §1, §2, §3, §4, §5, §6

| SMILES | ratio of mean NAD+ concentration in treated mice compared to vehicle control mice, 4 hr liver (NAD+ levels in liver) | ratio of mean NAD+ concentration in treated mice compared to vehicle control mice, 8 hr liver (NAD+ levels in liver) | ratio of mean NAD+ concentration in treated mice compared to vehicle control mice, 24 hr liver (NAD+ levels in liver) | ratio of mean NAD+ concentration in treated mice compared to vehicle control mice, 4 hr skeletal [1] | ratio of mean NAD+ concentration in treated mice compared to vehicle control mice, 8 hr skeletal [1] | ratio of mean NAD+ concentration in treated mice compared to vehicle control mice, 24 hr skeletal [1] |
| --- | --- | --- | --- | --- | --- | --- |
| NC(=O)c1ccc[n+]([C@@H]2OC(COP3(=O)OCCC(c4cc(F)cc(F)c4)O3)[C@@H](O)[C@H]2O)c1.O=C([O-])C(F)(F)F (stereo partly drawn) [Compound 2, 1-((2R,3R,4S)-5-(((4-(3,5-Difluorophenyl)-2-oxido-1,3,2-dioxaphosphinan-2-yl)oxy)methyl)-3,4-dihydroxytetrahydrofuran-2-yl)-1λ^4-pyridine-3-carboxamide Trifluoroacetate Salt] | 2.0 | 1.6 | 1.8 | 0.9 | 1.0 | 1.4 |
| CC(C)OC(=O)[C@H](C)NP(=O)(OCC1O[C@@H]([n+]2cccc(C(N)=O)c2)[C@H](O)[C@@H]1O)Oc1ccccc1 (stereo partly drawn) [Compound 4, Isopropyl ((((3S,4R,5R)-5-(3-carbamoyl-1λ4-pyridin-1-yl)-3,4-dihydroxytetrahydrofuran-2-yl)methoxy)(phenoxy)phosphoryl)-L-alaninate Trifluoroacetate Salt] | 1.0 | 1.7 | 1.8 | 0.9 | 1.4 | 1.1 |
| CC(C)(C)C(=O)SCCOP(=O)(NCc1ccccc1)OCC1OC([n+]2cccc(C(N)=O)c2)C(O)C1O (stereo not drawn) [Compound 6, 1-(5-((((Benzylamino)(2-(pivaloylthio)ethoxy)phosphoryl)oxy)methyl)-3,4-dihydroxytetrahydrofuran-2-yl)-3-carbamoylpyridin-1-ium Trifluoroacetate Salt] | 4.3 | 6.6 | 3.5 | 1.3 | 1.7 | 2.6 |
| CC(NP(=O)(OCC1O[C@@H]([n+]2cccc(C(N)=O)c2)[C@H](O)[C@@H]1O)Oc1cccc2ccccc12)C(=O)OCc1ccccc1 (stereo partly drawn) [Compound 8, 1-((2R,3R,4S)-5-(((((1-(Benzyloxy)-1-oxopropan-2-yl)amino)(naphthalen-1-yloxy)phosphoryl)oxy)methyl)-3,4-dihydroxytetrahydrofuran-2-yl)-3-carbamoylpyridin-1-ium Trifluoroacetate Salt] | 1.2 | 1.0 | 0.9 | 1.0 | 0.8 | 0.8 |
| CCC(CC)COC(=O)C(C)NP(=O)(OCC1O[C@@H]([n+]2cccc(C(N)=O)c2)[C@H](O)[C@@H]1O)Oc1ccccc1 (stereo partly drawn) [Compound 9, 2-Ethylbutyl ((((3S,4R,5R)-5-(3-carbamoyl-1λ^4-pyridin-1-yl)-3,4-dihydroxytetrahydrofuran-2-yl)methoxy)(phenoxy)phosphoryl)alaninate Trifluoroacetate Salt] | 0.8 | 0.8 | 1.3 | 1.88 | 1.34 | 0.96 |
| CCOP(=O)(OCC)OCC1OC([n+]2cccc(C(N)=O)c2)C(O)C1O (stereo not drawn) [Compound 19, 3-Carbamoyl-1-(5-(((diethoxyphosphoryl)oxy)methyl)-3,4-dihydroxytetrahydrofuran-2-yl)pyridin-1-ium Chloride] | 1 | 1 | 1 | 0.8 | 1.2 | 0.1 |
| CCCCCCCCCCCCCCCOCCCOP(=O)(OC)OCC1OC([n+]2cccc(C(N)=O)c2)C(O)C1O (stereo not drawn) [Compound 21, 3-Carbamoyl-1-(3,4-dihydroxy-5-(((methoxy(3-(pentadecyloxy)propoxy)phosphoryl)oxy)methyl)tetrahydrofuran-2-yl)pyridin-1-ium Trifluoroacetate Salt] | 2.2 | 2.1 | 1.7 | 1.3 | 2.4 | 3.4 |
